pIC50: −log10 of the molar value. Like-named read-outs stand apart in the source and are kept apart here.
How the values were obtained:
Glucocorticoid Receptor = target: T1, Glucocorticoid Receptor (Homo sapiens, UniProt P04150); experiment: GR reporter assay, agonist mode; type: cell-based; conditions: at very high concentrations
T1 construct: endogenous in cells; host or cells: human kidney epithelial cells
T1 sequence (P04150 1-777): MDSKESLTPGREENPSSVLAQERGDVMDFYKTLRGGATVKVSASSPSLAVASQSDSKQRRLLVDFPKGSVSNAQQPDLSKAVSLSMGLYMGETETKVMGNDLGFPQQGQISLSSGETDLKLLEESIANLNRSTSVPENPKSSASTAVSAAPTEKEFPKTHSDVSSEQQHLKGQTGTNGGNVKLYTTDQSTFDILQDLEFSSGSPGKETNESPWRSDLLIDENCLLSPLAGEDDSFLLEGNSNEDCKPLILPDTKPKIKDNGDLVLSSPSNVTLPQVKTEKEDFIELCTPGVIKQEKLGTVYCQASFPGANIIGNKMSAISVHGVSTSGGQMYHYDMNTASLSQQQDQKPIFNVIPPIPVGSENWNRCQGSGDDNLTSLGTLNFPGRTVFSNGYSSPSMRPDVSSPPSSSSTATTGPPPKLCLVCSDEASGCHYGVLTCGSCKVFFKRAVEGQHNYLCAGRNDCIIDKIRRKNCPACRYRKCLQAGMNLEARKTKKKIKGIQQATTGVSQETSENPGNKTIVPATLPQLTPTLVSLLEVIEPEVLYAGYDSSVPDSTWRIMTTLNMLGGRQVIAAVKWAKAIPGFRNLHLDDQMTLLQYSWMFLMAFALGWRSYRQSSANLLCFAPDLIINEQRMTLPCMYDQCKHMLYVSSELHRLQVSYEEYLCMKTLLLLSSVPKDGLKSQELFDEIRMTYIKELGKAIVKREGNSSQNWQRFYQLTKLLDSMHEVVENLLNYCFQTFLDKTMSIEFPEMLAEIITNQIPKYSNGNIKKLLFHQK
Method: The androgen and glucocorticoid hormones elicit divergent and often opposing effects in cells, tissues, and animals. […] CB-03-10 GR antagonist and agonist activities were tested in an in vitro assay. Briefly, human kidney epithelial cells were transfected with DNA construct containing GR binding sites linked to luminescent based reporter molecule. After 24 hours, cells were treated under antagonist or agonist modes. After an additional 24 hours, luminescence which is proportional to GR agonist transcriptional activity was quantitated.
Agonist Assay—was based on induction of luminescence by CB-03-10
The agonist activity of CB-03-10 was compared to a RU486 which is known to not have agonist activity.

[1] = tested on: stimulated PBMC (actively dividing cells); experiment: IC50 on stimulated PBMC (intrinsic toxicity); type: cell-based; conditions: Homo sapiens, stimulated PBMC
Method: The IC50 in PBMC were tested in 2 different activation status: • stimulated—actively dividing cells • resting—quiescent, non-dividing cells
IC50 of the compounds was determined on fresh cells isolated from human blood (PBMC).

For `CCCCC(=O)O[C@]1(C(=O)COC(=O)CC)CC[C@H]2[C@@H]3CCC4=CC(=O)CC[C@]4(C)[C@H]3CC[C@@]21C` [CB-03-10, cortexolone 17α-valerate-21-propionate], the “GR agonist activity relative to 50 nM Dex” value (Glucocorticoid Receptor) was 20%, the pIC50 ([1]; Example 7, Experiment 1, read-out: IC50 (microM) on Stimulated PBMC) was 3.97 and the pIC50 ([1]; Example 7, Experiment 2, read-out: IC50 (microM) on Stimulated PBMC) was 4.03.

— patent US10183030B2, “17α,21-diesters of cortexolone for use in the treatment of tumors” (COSMO TECHNOLOGIES LTD., priority 2014, dated 2019)
